Usually EC50 stands for the midpoint of the concentration-response curve.

These results are taken from patent US11046686B2, “Thiadiazole IRAK4 compounds” (Gilead Sciences, Inc., priority 2018, dated 2021).

Each structure is given as a SMILES string.

In one test the test system is TNFα. In words: IRAK4 Monocyte TNFα Cell Based Assay. Further details: species or system human. Conditions: Homo sapiens, Monocyte, human monocytes; second part of Table 2, compounds 33-343; unit inferred; read-out: EC50 MONO TNF HTRF. Put shortly:
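TNFα release quantified by HTRF (cryptate/XL665 antibody pair, overnight at RT) after 1 h compound pre-incubation (0.1% DMSO) and 4 h LPS challenge at 50 pg/ml, 37 °C, 5,000 monocytes per well. Signal ratio normalised between unstimulated (0%) and stimulated (100%) controls.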
On the technique in general: TR-FRET usually uses a lanthanide donor and a delayed reading to cut background.
With `C[C@H](C#N)Nc1cc(-c2ccc3cc(C#N)cnn23)ncc1-c1nnc(N2C[C@H]3CC[C@@H](C2)[C@@H]3NC(=O)C2CC2)s1` [Example 148, N-((1R,5S,8S)-3-(5-(4-(((R)-1-cyanoethyl)amino)-6-(3-cyanopyrrolo[1,2-b]pyridazin-7-yl)pyridin-3-yl)-1,3,4-thiadiazol-2-yl)-3-azabicyclo[3.2.1]octan-8-yl)cyclopropanecarboxamide], the EC50 came to 1.4 nM.

The same test, now with this note: human monocytes; second part of Table 2, compounds 33-343; unit inferred; read-out: EC50 MONO TNF HTRF.
For the molecule `CC1(Nc2cc(-c3ccc4cc(C#N)cnn34)ncc2-c2nnc(N3C[C@H]4CC[C@@H](C3)[C@H]4O)s2)COC1` [Example 149, 7-(5-(5-((1R,5S,8r)-8-hydroxy-3-azabicyclo[3.2.1]octan-3-yl)-1,3,4-thiadiazol-2-yl)-4-((3-methyloxetan-3-yl)amino)pyridin-2-yl)pyrrolo[1,2-b]pyridazine-3-carbonitrile], the EC50 turned out to be 4.9 nM. The same measure, in the same setting: to `CC(C)Nc1cc(-c2ccc3cc(C#N)cnn23)ncc1-c1nnc(N2C[C@H]3CC[C@@H](C2)[C@@H]3NC(=O)C2CC2)s1` [Example 150, N-((1R,5S,8s)-3-(5-(6-(3-cyanopyrrolo[1,2-b]pyridazin-7-yl)-4-(isopropylamino)pyridin-3-yl)-1,3,4-thiadiazol-2-yl)-3-azabicyclo[3.2.1]octan-8-yl)cyclopropanecarboxamide] belongs 5.2 nM; to `CC(C)Nc1cc(-c2ccc3cc(C#N)cnn23)ncc1-c1nnc(N2C[C@H]3CC[C@@H](C2)[C@@]3(C)O)s1` [Example 153, 7-(5-(5-((1R,55,8r)-8-hydroxy-8-methyl-3-azabicyclo[3.2.1]octan-3-yl)-1,3,4-thiadiazol-2-yl)-4-(isopropylamino)pyridin-2-yl)pyrrolo[1,2-b]pyridazine-3-carbonitrile], 7.2 nM; to `CC(C)Nc1cc(-c2ccc3cc(C#N)cnn23)ncc1-c1nnc(N2C[C@H]3CC[C@@H](C2)[C@@H]3O)s1` [Example 154, 7-(5-(5-((1R,5S,8s)-8-hydroxy-3-azabicyclo[3.2.1]octan-3-yl)-1,3,4-thiadiazol-2-yl)-4-(isopropylamino)pyridin-2-yl)pyrrolo[1,2-b]pyridazine-3-carbonitrile], 13.3 nM. As to `CC(=O)N[C@]1(C)[C@@H]2CC[C@H]1CN(c1nnc(-c3cnc(-c4ccc5cc(C#N)cnn45)cc3NC(C)C)s1)C2` [Example 155], the EC50 is 7.4 nM.

For the molecule `N#Cc1cnn2c(-c3cc(NC4CCOCC4)c(-c4nnc([C@H]5CC[C@H](NC(=O)C6CC6)CC5)s4)cn3)ccc2c1` [Example 156, N-((1r,4r)-4-(5-(6-(3-cyanopyrrolo[1,2-b]pyridazin-7-yl)-4-((tetrahydro-2H-pyran-4-yl)amino)pyridin-3-yl)-1,3,4-thiadiazol-2-yl)cyclohexyl)cyclopropanecarboxamide], the EC50 is 10.9 nM.

As for `CC(=O)N[C@]1(C)[C@@H]2CC[C@H]1CN(c1nnc(-c3cnc(-c4ccc5cc(C#N)cnn45)cc3N[C@H](C)C#N)s1)C2` [Example 157, N-((1R,5S,8S)-3-(5-(4-((R)-1-cyanoethypamino)-6-(3-cyanopyrrolo[1,2-b]pyridazin-7-yl)pyridin-3-yl)-1,3,4-thiadiazol-2-yl)-8-methyl-3-azabicyclo[3.2.1]octan-8-yl)acetamide], the EC50 worked out at 1.8 nM. On to `CC1(Nc2cc(-c3ccc4cc(C#N)cnn34)ncc2-c2nnc([C@H]3CC[C@H](NC(=O)C4CC4)CC3)s2)COC1` [Example 158, N-((1r,4r)-4-(5-(6-(3-cyanopyrrolo[1,2-b]pyridazin-7-yl)-4-((3-methyloxetan-3-yl)amino)pyridin-3-yl)-1,3,4-thiadiazol-2-yl)cyclohexyl)cyclopropanecarboxamide], for which the concentration giving a half-maximal response (EC50) amounted to 19.8 nM. For `CC(C)Nc1cc(-c2ccc3cc(C#N)cnn23)ncc1-c1nnc(N2CC3CCC(C2)C3(O)C(F)(F)F)s1` (centres unmarked) [Example 159, 7-(5-(5-(8-hydroxy-8-(trifluoromethyl)-3-azabicyclo[3.2.1]octan-3-yl)-1,3,4-thiadiazol-2-yl)-4-(isopropylamino)pyridin-2-yl)pylrolo[1,2-b]pyridazine-3-carbonitrile], the EC50 stood at 25.7 nM.

On to `C[C@H](C#N)Nc1cc(-c2ccc3cc(C#N)cnn23)ncc1-c1nnc([C@H]2CC[C@H](NC(=O)C3CC3)CC2)s1` [Example 160, N-((1R,4r)-4-(5-(4-(((R)-1-cyanoethyl)amino)-6-(3-cyanopyrrolo[1,2-b]pyridazin-7-yl)pyridin-3-yl)-1,3,4-thiadiazol-2-yl)cyclohexyl)cyclopropanecarboxamide], for which the EC50 came out at 2.8 nM. As for `CC(C)Nc1cc(-c2ccc3cc(C#N)cnn23)ncc1-c1nnc(N2CC3(CCNC3=O)C2)s1` [Example 164], the EC50 is 17.5 nM. With `CC(=O)N[C@H]1[C@@H]2CCC[C@H]1CN(c1nnc(-c3cnc(-c4ccc5cc(C#N)cnn45)cc3NC(C)C)s1)C2` [Example 165, N-((1R,5S,9r)-3-(5-(6-(3-cyanopyrrolo[1,2-b]pyridazin-7-yl)-4-(isopropylamino)pyridin-3-yl)-1,3,4-thiadiazol-2-yl)-3-azabicyclo[3.3.1]nonan-9-yl)acetamide], the EC50 turned out to be 39.1 nM. Turning to `CC(=O)N[C@@H]1[C@@H]2CCC[C@H]1CN(c1nnc(-c3cnc(-c4ccc5cc(C#N)cnn45)cc3NC(C)C)s1)C2` [Example 166, N-((1R,5S,9s)-3-(5-(6-(3-cyanopyrrolo[1,2-b]pyridazin-7-yl)-4-(isopropylamino)pyridin-3-yl)-1,3,4-thiadiazol-2-yl)-3-azabicyclo[3.3.1]nonan-9-yl)acetamide], the EC50 was 2.3 nM. On to `CC(=O)N[C@@H]1[C@@H]2CC[C@H]1CN(c1nnc(-c3cnc(-c4ccc5cc(C#N)cnn45)cc3NC3CCOCC3)s1)C2` [Example 171, N-((1R,5S,8s)-3-(5-(6-(3-cyanopyrrolo[1,2-b]pyridazin-7-yl)-4-((tetrahydro-2H-pyran-4-yl)amino)pyridin-3-yl)-1,3,4-thiadiazol-2-yl)-3-azabicyclo[3.2.1]octan-8-yl)acetamide], for which the EC50 came to 2.1 nM.

For `CC(C)Nc1cc(-c2ccc3cc(C#N)cnn23)ncc1-c1nnc(N2CCC(O)(C(F)(F)F)CC2)s1` [Example 172, 7-(5-(5-(4-hydroxy-4-(trifluoromethyl)piperidin-l-yl)-1,3,4-thiadiazol-2-yl)-4-(isopropylamino)pyridin-2-yl)pyrrolo[1,2-b]pyridazine-3-carbonitrile], the concentration giving a half-maximal response (EC50) is 34.4 nM.

For the molecule `CC(=O)N[C@@H]1[C@@H]2C[C@H]1CN(c1nnc(-c3cnc(-c4ccc5cc(C#N)cnn45)cc3NC(C)C)s1)C2` [Example 173, N-((1R,5S,6s)-3-(5-(6-(3-cyanopyrrolo[1,2-b]pyridazin-7-yl)-4-(isopropylamino)pyridin-3-yl)-1,3,4-thiadiazol-2-yl)-3-azabicyclo[3.1.1]heptan-6-yl)acetamide], the EC50 was determined as 11.6 nM.

`CC(=O)N[C@@H]1[C@@H]2C[C@H]1CN(c1nnc(-c3cnc(-c4ccc5cc(C#N)cnn45)cc3N[C@H](C)C#N)s1)C2` [Example 174, N-((1R,5S,6S)-3-(5-(4-(((R)-1-cyanoethyl)amino)-6-(3-cyanopyrrolo[1,2-b]pyridazin-7-yl)pyridin-3-yl)-1,3,4-thiadiazol-2-yl)-3-azabicyclo[3.1.1]heptan-6-yl)acetamide]: the 50% effective concentration (EC50) worked out at 3.5 nM. On the same count and under the same terms, to `CC(=O)N[C@@H]1[C@@H]2C[C@H]1CN(c1nnc(-c3cnc(-c4ccc5cc(C#N)cnn45)cc3NC3(C)COC3)s1)C2` [Example 175, N-((1R,5S,6s)-3-(5-(6-(3-cyanopyrrolo[1,2-b]pyridazin-7-yl)-4-((3-methyloxetan-3-yl)amino)pyridin-3-yl)-1,3,4-thiadiazol-2-yl)-3-azabicyclo[3.1.1]heptan-6-yl)acetamide] belongs 9 nM; to `CNc1cc(-c2ccc3cc(C#N)cnn23)ncc1-c1nnc(N2C[C@H]3C[C@@H](C2)[C@@H]3NC(C)=O)s1` [Example 176, N-((1R,5S,6s)-3-(5-(6-(3-cyanopyrrolo[1,2-b]pyridazin-7-yl)-4-(methylamino)pyridin-3-yl)-1,3,4-thiadiazol-2-yl)-3-azabicyclo[3.1.1]heptan-6-yl)acetamide], 23.5 nM; to `CC(=O)N[C@@H]1[C@@H]2C[C@H]1CN(c1nnc(-c3cnc(-c4ccc5cc(C#N)cnn45)cc3NC3COC3)s1)C2` [Example 179, N-((1R,5S,6s)-3-(5-(6-(3-cyanopyrrolo[1,2-b]pyridazin-7-yl)-4-(oxetan-3-ylamino)pyridin-3-yl)-1,3,4-thiadiazol-2-yl)-3-azabicyclo[3.1.1]heptan-6-yl)acetamide], 6.4 nM. As for `C[C@H](C#N)Nc1cc(-c2ccc3cc(C#N)cnn23)ncc1-c1nnc(N2CCC(C)(O)CC2)s1` [Example 180], the EC50 worked out at 6.8 nM.

Regarding `CC1(O)CCN(c2nnc(-c3cnc(-c4ccc5cc(C#N)cnn45)cc3NC3(C)COC3)s2)CC1` [Example 181, 7-(5-(5-(4-hydroxy-4-methylpiperidin-l-yl)-1,3,4-thiadiazol-2-yl)-4-((3-methyloxetan-3-yl)amino)pyridin-2-yl)pyrrolo[1,2-b]pyridazine-3-carbonitrile], the EC50 was determined as 18.4 nM.

Regarding `CC(=O)N[C@H]1[C@@H]2COC[C@H]1CN(c1nnc(-c3cnc(-c4ccc5cc(C#N)cnn45)cc3NC(C)C)s1)C2` [Example 182, N-((1R,5S,9r)-7-(5-(6-(3-cyanopyrrolo[1,2-b]pyridazin-7-yl)-4-(isopropylamino)pyridin-3-yl)-1,3,4-thiadiazol-2-yl)-3-oxa-7-azabicyclo[3.3.1]nonan-9-yl)acetamide], the concentration giving a half-maximal response (EC50) amounted to 37.8 nM. Turning to `CC(=O)N[C@@H]1[C@@H]2CC[C@H]1CN(c1nnc(-c3cnc(-c4ccc5cc(C#N)cnn45)cc3NC3COC3)s1)C2` [Example 184], the EC50 was 2.4 nM. As to `CC(C)Nc1cc(-c2ccc3cc(C#N)cnn23)ncc1-c1nnc(N2CC[C@@](C)(O)[C@@H](F)C2)s1` [Example 186, 7-(5-(5-((3S,4R)-3-fluoro-4-hydroxy-4-methylpiperidin-l-yl)-1,3,4-thiadiazol-2-yl)-4-(isopropylamino)pyridin-2-yl)pyrrolo[1,2-b]pyridazine-3-carbonitrile], the half-maximal effective concentration (EC50) was found to be 8.4 nM.
